Reference: patent US9469613B2, “(N-(cyanomethyl)-4-(2-(4-morpholinophenylamino)pyrimidin-4-yl)benzamide” (Gilead Sciences, Inc., priority 2014, dated 2016)
Structures can show the parent of a compound that is named as a salt. One block for each molecule: values may come before it.

Columns and labels:
[1] = Effects of antioxidants on degradation of CYT-0387 Form II in aqueous solution (HPLC); type: physicochemical
Experimental: This was determined from the study that investigated the potential effects of different antioxidants in inhibiting or preventing degradation of CYT-0387 dihydrochloride monohydrate Form II. In the initial study, five antioxidants of three different mechanisms of action were examined: free radical scavenger antioxidants (propyl gallate, butylated hydroxyanisole (BHA), and butylated hydroxytoluene (BHT)), a sacrificial reductant (ascorbic acid), and an oxygen scavenger (sodium metabisulfite).
Aqueous solutions containing 20 μg/mL of CYT-0387 dihydrochlorid monohydrate Form II in 70% (v/v) 50 mM acetate buffer (pH 4.0) and 30% (v/v) methanol were incubated in absence (which was used as control) and presence of 0.1% (w/v) antioxidant at 60° C. for up to 7 days. At Day 0, 5 and 7, the solution was analyzed using a reverse-phase HPLC with a Zorbax SB-C8 column ([…].). […] While total degradation products could not be determined for 0.1% ascorbic acid due to interference, the main oxidative degradation products were not observed (data not shown).
In additional studies, the effects of the lower concentrations of 0.01% and 0.001% (w/v) of propyl gallate, BHA, and ascorbic acid on the stability of CYT-0387 were examined under the same condition. […] Moreover, at 0.001% (w/v) antioxidant level, the presence of propyl gallate decreased or inhibited the degradation of CYT-0387 relative to BHA and ascorbic acid (Table 7).

[2] = Phase 1 single dose PK study, Form II tablets vs Form I capsule, healthy subjects; conditions: human, in vivo
Experimental: Tablets comprising CYT-0387 dihydrochloride monohydrate Form II (doses equivalent to 100, 150, 200, and 300 mg of the free base) and capsules comprising CYT-0387 dihydrochloride anhydrous Form I (dose equivalent to 300 mg of the free base) were evaluated in a Phase 1, single dose study in healthy subjects.
Intensive PK and PD sampling occurred from 0.5 hour up to 36 hours post dose. Safety was monitored throughout the study. A parametric analysis of variance (ANOVA) using a mixed-effects model was used to fit to the natural logarithmic transformation of PK parameters (AUC and Cmax). The 90% confidence intervals were constructed for the ratio of geometric means of CYT-0387 dihydrochloride monohydrate Form II tablets at 100, 150, 200 and 300 mg vs CYT-0387 dihydrochloride anhydrous Form I capsule at 300 mg, using equivalence bounds of 70% to 143% for AUC and Cmax. The pharmacokinetic data is represented in Table 5.

[3] = tested on: phospho-SMAD1/5/8 in HepG2 cells; assay: BMP6-mediated phospho-SMAD1/5/8 levels in HepG2 cells (immunoblot); type: cell-based; conditions: for phospho-SMAD1/5/8 levels (normalized percentage): HepG2, 10 ng/mL BMP6 30 minutes, 100% = vehicle
Experimental: HepG2 cells were preincubated for 2 hours with increasing concentrations of CYT-0387 (0.02 to 10 μM CYT387) in the presence of 1% FBS and then stimulated for 30 minutes with 10 ng/mL of BMP6. Protein was extracted from the lysed cells and analyzed using immunoblot analysis with the antibodies specific for phospho-SMAD1 (Ser463/465), phospho-SMAD5 (Ser463/465) and phospho-SMAD8 (Ser465/467) and β-actin. Raw phospho-SMAD1/5/8 levels were quantified using densitometry software (Image Studio) and normalized to β-actin levels. The percentage of phospho-SMAD1/5/8 levels was calculated (100% is equal to phospho-SMAD1/5/8 levels in vehicle treated cells stimulated with 10 ng/mL of BMP6) and summarized in Table 9.

ALK2 (Acvr1) = ALK2 (Acvr1) (Homo sapiens (Human), UniProt Q04771); assay: In vitro enzyme inhibition assay (LanthaScreen); type: biochemical; conditions: n = 3
Experimental: (§1) In addition, biochemical binding assays (DiscoveRx) and in vitro enzyme inhibition assays (LanthaScreen, Life Technologies) were conducted to determine the binding affinity and inhibition activities of CYT-0387 to Type-I BMPR-kinases (ALK2, ALK3, and ALK6) were conducted. Transforming growth factor beta receptor 1 (TGFBR1, ALK5) was used as a control to determine the selectivity to Type-I BMPR-kinases.

ALK3 (BMPR1a) = ALK3 (BMPR1a) (Homo sapiens (Human), UniProt P36894); assay: In vitro enzyme inhibition assay (LanthaScreen); type: biochemical; conditions: n = 3
Experimental: as §1

ALK6 (BMPR1B) = ALK6 (BMPR1B) (Homo sapiens (Human), UniProt O00238); assay: In vitro enzyme inhibition assay (LanthaScreen); type: biochemical; conditions: n = 3
Experimental: as §1

Sequence of ALK3 (BMPR1a) (P36894 24-532): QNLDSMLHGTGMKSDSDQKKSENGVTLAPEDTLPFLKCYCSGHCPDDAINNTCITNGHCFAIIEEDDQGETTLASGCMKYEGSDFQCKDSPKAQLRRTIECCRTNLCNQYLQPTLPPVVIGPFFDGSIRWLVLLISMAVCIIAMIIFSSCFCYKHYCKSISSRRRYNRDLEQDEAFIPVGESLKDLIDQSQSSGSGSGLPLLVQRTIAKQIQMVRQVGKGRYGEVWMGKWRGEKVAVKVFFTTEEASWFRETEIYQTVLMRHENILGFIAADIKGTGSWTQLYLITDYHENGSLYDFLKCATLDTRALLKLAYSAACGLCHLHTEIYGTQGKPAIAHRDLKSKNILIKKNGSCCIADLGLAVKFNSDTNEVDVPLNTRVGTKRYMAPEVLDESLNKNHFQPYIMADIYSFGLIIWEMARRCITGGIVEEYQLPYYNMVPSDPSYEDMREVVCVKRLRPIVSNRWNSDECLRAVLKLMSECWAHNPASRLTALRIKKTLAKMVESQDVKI
Sequence of ALK2 (Acvr1) (Q04771 21-509): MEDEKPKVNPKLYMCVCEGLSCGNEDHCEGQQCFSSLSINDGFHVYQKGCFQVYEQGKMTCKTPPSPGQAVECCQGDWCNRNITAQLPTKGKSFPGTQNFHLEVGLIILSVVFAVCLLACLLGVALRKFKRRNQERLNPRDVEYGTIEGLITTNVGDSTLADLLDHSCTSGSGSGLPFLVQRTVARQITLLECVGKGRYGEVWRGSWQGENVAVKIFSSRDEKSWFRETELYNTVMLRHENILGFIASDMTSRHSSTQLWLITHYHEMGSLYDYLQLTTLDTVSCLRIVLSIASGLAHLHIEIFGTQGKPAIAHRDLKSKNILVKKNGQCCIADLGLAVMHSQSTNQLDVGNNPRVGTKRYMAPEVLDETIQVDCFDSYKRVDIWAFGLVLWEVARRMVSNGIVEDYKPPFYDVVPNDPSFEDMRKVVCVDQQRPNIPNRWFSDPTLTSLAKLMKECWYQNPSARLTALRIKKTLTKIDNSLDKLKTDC
Sequence of ALK6 (BMPR1B) (O00238 14-502): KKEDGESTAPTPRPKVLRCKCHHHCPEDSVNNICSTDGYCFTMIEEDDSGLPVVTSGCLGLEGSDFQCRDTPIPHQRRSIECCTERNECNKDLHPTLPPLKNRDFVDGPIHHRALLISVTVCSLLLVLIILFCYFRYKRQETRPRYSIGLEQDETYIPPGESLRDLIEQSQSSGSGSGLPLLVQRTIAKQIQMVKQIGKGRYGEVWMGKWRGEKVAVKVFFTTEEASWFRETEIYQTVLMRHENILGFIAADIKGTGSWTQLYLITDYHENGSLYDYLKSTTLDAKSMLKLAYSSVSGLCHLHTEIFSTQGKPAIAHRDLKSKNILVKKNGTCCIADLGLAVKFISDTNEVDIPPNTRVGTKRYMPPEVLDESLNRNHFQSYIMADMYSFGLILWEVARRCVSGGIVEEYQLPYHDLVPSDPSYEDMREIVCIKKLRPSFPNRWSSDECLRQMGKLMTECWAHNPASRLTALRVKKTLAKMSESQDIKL

- main oxidative degradation products ([1]; 0.1% ascorbic acid, 60° C. (data not shown)): not observed
- amount degraded ([1]; in the presence of 0.1% (w/v) propyl gallate or BHA, 60° C., up to 7 days): Less than one percent
- Total Degradation ([1]; pH 4 aqueous buffer, 60° C., control, no antioxidant, day 0): 0.29%
- Total Degradation ([1]; pH 4 aqueous buffer, 60° C., control, no antioxidant, day 5): 17.24%
- Total Degradation ([1]; pH 4 aqueous buffer, 60° C., control, no antioxidant, day 7): 21.84%
- Total Degradation ([1]; pH 4 buffer, 60° C., BHA 0.001% w/v, day 0): 0.30%
- Total Degradation ([1]; pH 4 buffer, 60° C., BHA 0.001% w/v, day 5): 7.64%
- Total Degradation ([1]; pH 4 buffer, 60° C., BHA 0.001% w/v, day 7): 13.76%
- Total Degradation ([1]; pH 4 buffer, 60° C., BHA 0.01% w/v, day 0): 0.55%
- Total Degradation ([1]; pH 4 buffer, 60° C., BHA 0.01% w/v, day 5): 1.75%
- Total Degradation ([1]; pH 4 buffer, 60° C., BHA 0.01% w/v, day 7): 3.04%
- Total Degradation ([1]; pH 4 buffer, 60° C., BHA 0.1% w/v, day 0): 0.45%
- Total Degradation ([1]; pH 4 buffer, 60° C., BHA 0.1% w/v, day 5): 0.50%
- Total Degradation ([1]; pH 4 buffer, 60° C., BHA 0.1% w/v, day 7): 1.24%
- Total Degradation ([1]; pH 4 buffer, 60° C., BHT 0.1% w/v, day 0): 0.06%
- Total Degradation ([1]; pH 4 buffer, 60° C., BHT 0.1% w/v, day 5): 1.71%
- Total Degradation ([1]; pH 4 buffer, 60° C., BHT 0.1% w/v, day 7): 4.35%
- Total Degradation ([1]; pH 4 buffer, 60° C., ascorbic acid 0.001% w/v, day 0): 0.51%
- Total Degradation ([1]; pH 4 buffer, 60° C., ascorbic acid 0.001% w/v, day 5): 17.95%
- Total Degradation ([1]; pH 4 buffer, 60° C., ascorbic acid 0.001% w/v, day 7): 21.28%
- Total Degradation ([1]; pH 4 buffer, 60° C., ascorbic acid 0.01% w/v, day 0): 0.20%
- Total Degradation ([1]; pH 4 buffer, 60° C., ascorbic acid 0.01% w/v, day 5): 1.58%
- Total Degradation ([1]; pH 4 buffer, 60° C., ascorbic acid 0.01% w/v, day 7): 1.78%
- Total Degradation ([1]; pH 4 buffer, 60° C., propyl gallate 0.001% w/v, day 0): 0.22%
- Total Degradation ([1]; pH 4 buffer, 60° C., propyl gallate 0.001% w/v, day 5): 1.98%
- Total Degradation ([1]; pH 4 buffer, 60° C., propyl gallate 0.001% w/v, day 7): 4.32%
- Total Degradation ([1]; pH 4 buffer, 60° C., propyl gallate 0.01% w/v, day 0): 0.22%
- Total Degradation ([1]; pH 4 buffer, 60° C., propyl gallate 0.01% w/v, day 5): 0.38%
- Total Degradation ([1]; pH 4 buffer, 60° C., propyl gallate 0.01% w/v, day 7): 0.72%
- Total Degradation ([1]; pH 4 buffer, 60° C., propyl gallate 0.1% w/v, day 0): 0.29%
- Total Degradation ([1]; pH 4 buffer, 60° C., propyl gallate 0.1% w/v, day 5): 0.31%
- Total Degradation ([1]; pH 4 buffer, 60° C., propyl gallate 0.1% w/v, day 7): 0.32%
- Total Degradation ([1]; pH 4 buffer, 60° C., sodium metabisulfite 0.1% w/v, day 0): 0.33%
- Total Degradation ([1]; pH 4 buffer, 60° C., sodium metabisulfite 0.1% w/v, day 5): 43.83%
- Total Degradation ([1]; pH 4 buffer, 60° C., sodium metabisulfite 0.1% w/v, day 7): 46.31%
- bioavailability compared to CYT-0387 dihydrochloride anhydrous Form I and CYT-0387 free base [2]: increased bioavailability
Structure (SMILES): N#CCNC(=O)c1ccc(-c2ccnc(Nc3ccc(N4CCOCC4)cc3)n2)cc1 [CYT-0387 Form II, N-(cyanomethyl)-4-(2-(4-morpholinophenylamino)pyrimidin-4-yl)benzamide dihydrochloride monohydrate Form II]

- IC50 (ALK2 (Acvr1)): 8 nM
- IC50 (ALK3 (BMPR1a)): 405 nM
- IC50 (ALK6 (BMPR1B)): 107 nM
Structure (SMILES): N#CCNC(=O)c1ccc(-c2ccnc(Nc3ccc(N4CCOCC4)cc3)n2)cc1 [CYT-0387, N-(cyanomethyl)-4-(2-(4-morpholinophenylamino)pyrimidin-4-yl)benzamide]
- phospho-SMAD1/5/8 levels (normalized percentage) ([3]; 0.020 μM): 83%
- phospho-SMAD1/5/8 levels (normalized percentage) ([3]; 0.039 μM): 80%
- phospho-SMAD1/5/8 levels (normalized percentage) ([3]; 0.078 μM): 91%
- phospho-SMAD1/5/8 levels (normalized percentage) ([3]; 0.156 μM): 96%
- phospho-SMAD1/5/8 levels (normalized percentage) ([3]; 0.313 μM): 88%
- phospho-SMAD1/5/8 levels (normalized percentage) ([3]; 0.625 μM): 91%
- phospho-SMAD1/5/8 levels (normalized percentage) ([3]; 1.25 μM): 65%
- phospho-SMAD1/5/8 levels (normalized percentage) ([3]; 2.5 μM): 52%
- phospho-SMAD1/5/8 levels (normalized percentage) ([3]; 5.0 μM): 40%
- phospho-SMAD1/5/8 levels (normalized percentage) ([3]; 10.0 μM): 31%
- effect on BMP6-mediated phospho-SMAD1/5/8 levels ([3]; 0.02 to 10 μM, HepG2): dose-dependent inhibition
